Measured values reported in PMC5156323 (Journal of natural products, 2015).

Key:
Assay type in all cases: cell-based
[1] = test system: proinflammatory cytokine production in induced THP-1 cells; assay: induced THP-1; conditions: at 10 μM
leukemia cell line SR = assay: NCI-DTP 60, SR; conditions: read-out: IC50 (cytotoxic)
[2] = test system: interleukin 6 (IL-6) production in induced THP-1 cells; assay: induced THP-1
[3] = test system: IL-1β production in induced THP-1 cells; assay: induced THP-1; conditions: abstract, no concentration given
[4] = test system: melanoma cell line LOX IMVI; assay: NCI-DTP 60, LOX IMVI; conditions: Homo sapiens, read-out: IC50 (cytotoxic)
[5] = test system: tumor necrosis factor-alpha (TNF-α) production in induced THP-1 cells; assay: induced THP-1; conditions: abstract, no concentration given
[6] = test system: IL-33 production in induced THP-1 cells; assay: induced THP-1; conditions: at 10 μM; THP-1 cells induced with LPS and TiO2

SMILES | effect on proinflammatory cytokine production [1] | IC50 (leukemia cell line SR) [µM] | IL-6 production in the induced inflammasome assay ([2]; abstract, no concentration given) | inhibition of production of interleukin 6 (IL-6) ([2]; at 10 μM, THP-1 cells induced with LPS and TiO2) | IL-1β production in the induced inflammasome assay [3] | IC50 [4] [µM] | TNFα production in the induced inflammasome assay [5] | inhibition of production of IL-33 [6]
CCCCCCCCCC(=O)[C@@H]1C(=O)O[C@@]2(C)C(=O)C=C3C=C(C[C@H](C)O)OC=C3[C@@H]12 [Compound 1, berkchaetoazaphilone A] | no effect | – | – | – | – | – | – | –
CCCCCCCCCC(=O)[C@@]12O[C@@]13C1=COC(C[C@H](C)O)=CC1=CC(=O)[C@]3(C)OC2=O [Compound 2, berkchaetoazaphilone B] | – | 10 | inhibited | completely inhibited | inhibited | 10 | inhibited | completely inhibited
